In the RepoRT retention time repository (doi:10.3390/metabo9050085):

experiment: Phenomenex Kinetex C18, 150 × 2.1 mm, 1.7 µm, 30 °C, 0.3 mL/min; A: water + 0.1% formic acid; B: acetonitrile + 0.1% formic acid; gradient (min/%B) 0/2 14/100 17/100 17/2 25/2; conditions: stereoisomer not certain

SMILES | LC retention time
CC12CCC3C(CCC4=CC(=O)CCC43C)C1CCC2=O (stereo not given) | 10.8 min
CC12CCC(=O)CC1CCC1C2CCC2(C)C(OS(=O)(=O)O)CCC12 (stereo not given) | 10.6 min
CC12CCC3C(CCC4=CC(=O)CCC43C=O)C1CCC2O (stereo not given) | 8.59 min
CC(O)C1CCC2C3CCC4=CC(=O)CCC4(C)C3CCC12C (stereo not given) | 12 min
CC12CCC3C(CC=C4CC(OS(=O)(=O)O)CCC43C)C1CCC2=O (stereo not given) | 9.91 min
CC12CCC3C(C(=O)CC4CC(O)CCC43C)C1CCC2=O (stereo not given) | 8 min
CC12CCC(O)CC1CCC1C2CCC2(C)C(C(=O)CO)CCC12 (stereo not given) | 11.3 min
CC(=O)C1(O)CCC2C3CC=C4CC(O)CCC4(C)C3CCC21C (stereo not given) | 10.7 min
CC12CCC3C(CCC4=CC(=O)CCC43C)C1CC(O)C2=O (stereo not given) | 8.39 min
CC12CCC(=O)C=C1CCC1C2C(=O)CC2(C)C(C(=O)CO)CCC12 (stereo not given) | 8.53 min
CC12CCC3C(CC(O)C4CC(O)CCC43C)C1CCC2O (stereo not given) | 8.18 min
CC12CCC(O)CC1=CCC1C2CCC2(C)C(O)C(=O)CC12 (stereo not given) | 8.03 min
COc1cc2c(cc1O)CCC1C2CCC2(C)C(O)CCC12 (stereo not given) | 10.5 min
CC12CC(=O)C3C(CCC4=CC(=O)CCC43C)C1CCC2=O (stereo not given) | 8.68 min
COc1cc2c(cc1OC)C1CCC3(C)C(O)CCC3C1CC2 (stereo not given) | 11.5 min
CC(CCC(=O)O)C1CCC2C3CC=C4CC(O)CCC4(C)C3CCC12C (stereo not given) | 15.8 min
CC12CCC3C(C(O)CC4CC(O)CCC43C)C1CCC2=O (stereo not given) | 8.74 min
CC12CCC3c4ccc(O)cc4CCC3C1CC(=O)C2=O (stereo not given) | 7.82 min
CC12CCC3C(CC=C4CC(=O)CCC43C)C1CCC2=O (stereo not given) | 11 min
CC12CCC(=O)C=C1CCC1C2CCC2(C)C(OS(=O)(=O)O)CCC12 (stereo not given) | 9.81 min
CC12CCC(=O)C=C1CCC1C2C(O)CC2(C)C(O)CCC12 (stereo not given) | 8.2 min

SMILES | LC retention time
COc1c(O)ccc2c1CCC1C2CCC2(C)C(=O)CCC12 (stereo not given) | 9.74 min
CC12CCC(O)CC1=CC(O)C1C2CCC2(C)C(O)CCC12 (stereo not given) | 7.81 min
CC12CCC(O)CC1CCC1C2CC(O)C2(C)CCC(O)C12 (stereo not given) | 6.31 min
CC12CCC3C(CCC4=CC(=O)CCC43C=O)C1CCC2=O (stereo not given) | 9.42 min
CC12CCC(O)CC1=CCC1C2CCC2(C)C(O)CCC12 (stereo not given) | 10.8 min
CC12CCC3c4cc(O)c(O)cc4CCC3C1CCC2O (stereo not given) | 7.86 min
CC(O)C1(O)CCC2C3CCC4=CC(=O)CCC4(C)C3CCC21C (stereo not given) | 9.92 min
CC12CCC3C4=CC(=O)C(=O)C=C4CCC3C1CCC2O (stereo not given) | 7.58 min
CC12CC(O)C3C(CCC4=CC(=O)CCC43C)C1CCC2=O (stereo not given) | 8.87 min
CC12CCC(=O)C=C1CC(O)C1C2CCC2(C)C(O)CCC12 (stereo not given) | 7.06 min
CC12CCC3C(CCC4CC(OS(=O)(=O)O)CCC43C)C1CCC2=O (stereo not given) | 10.5 min
CC(=O)C1CCC2C3C(O)C=C4CC(O)CCC4(C)C3CCC12C (stereo not given) | 8.93 min
CC12CCC3C(CCC4=CC(=O)CCC43CO)C1CCC2O (stereo not given) | 7.3 min
CC12CCC3C(C(O)CC4=CC(=O)CCC43C)C1CCC2=O (stereo not given) | 7.78 min
CC12CCC3C4CCC(=O)CC4CCC3C1CCC2O (stereo not given) | 9.72 min
CC12CCC3C(CCC4=CC(=O)CCC43CO)C1CCC2=O (stereo not given) | 7.72 min
CC12C=CC(=O)CC1CCC1C2CCC2(C)C(O)CCC12 (stereo not given) | 9.97 min
CC12CCC3c4ccc(O)c(O)c4CCC3C1CCC2O (stereo not given) | 7.61 min
CC12CCC(=O)C=C1CCC1C2CCC2(C)C(O)CC(O)C12 (stereo not given) | 6.97 min
CC12CCC(O)C=C1CCC1C2CCC2(C)C(O)CCC12 (stereo not given) | 9.76 min

The next lines start with the values.

LC retention time | SMILES
10.5 min | CC12CCC(O)CC1=CCC1C2CCC2(C)C(C(=O)CO)CCC12 (stereo not given)
10.1 min | CC12CCC(O)CC1CCC1C2CCC2(C)C1CCC2(O)C(=O)CO (stereo not given)
7.97 min | CC12CCC3c4ccc(O)cc4C(O)CC3C1CCC2=O (stereo not given)
8.37 min | CC(C(=O)O)C1CCC2C3C(O)CC4CC(O)CCC4(C)C3CC(O)C12C (stereo not given)
8.66 min | CC(O)C1(O)CCC2C3CCC4CC(O)CCC4(C)C3C(=O)CC21C (stereo not given)
10 min | CC12CCC(=O)C=C1CCC1C2CCC2(C)C1CCC2(O)CCO (stereo not given)
11 min | CC(O)C1(O)CCC2C3CCC4CC(O)CCC4(C)C3CCC21C (stereo not given)
9.04 min | CC12CCC(=O)C=C1CCC1C2CCC2(C)C1CCC2(O)C(=O)CO (stereo not given)
7.75 min | CC12CCC(=O)C=C1CCC1C2C(=O)CC2(C)C1CCC2(O)C(=O)CO (stereo not given)
7.15 min | CC12CCC(=O)C=C1CCC1C2C(O)CC2(C=O)C(C(=O)CO)CCC12 (stereo not given)
8.38 min | CC12CCC(O)CC1CCC1C2C(=O)CC2(C)C1CCC2(O)C(=O)CO (stereo not given)
12.9 min | CC(=O)C1CCC2C3CCC4=CC(=O)CCC4(C)C3CCC12C (stereo not given)
10.5 min | CC12CCC(=O)C=C1CCC1C2CCC2(C)C(C(=O)CO)CCC12 (stereo not given)
7.7 min | CC12CCC3c4ccc(O)cc4CCC3C1C(O)CC2=O (stereo not given)
10.7 min | CC12CCC3c4ccc(O)cc4CCC3C1CCC2=O (stereo not given)
9.18 min | CC12CCC(=O)C=C1CCC1C2C(O)CC2(C)C(C(=O)CC(=O)O)CCC12 (stereo not given)
9.87 min | CC(=O)C1C(O)CC2C3CC=C4CC(O)CCC4(C)C3CCC21C (stereo not given)
8.03 min | CC12CCC3C(CCC4=CC(=O)CCC43C(=O)O)C1CCC2C(=O)CO (stereo not given)
9.08 min | CC(=O)C1C(O)CC2C3CCC4=CC(=O)CCC4(C)C3CCC21C (stereo not given)
9.83 min | COc1cc2c(cc1O)C1CCC3(C)C(=O)CCC3C1CC2 (stereo not given)

LC retention time | SMILES
12.7 min | CC(=O)C1=CCC2C3CCC4=CC(=O)CCC4(C)C3CCC12C (stereo not given)
7.1 min | O=CC12CC(O)C3C4CCC(=O)C=C4CCC3C1CCC2C(=O)CO (stereo not given)
7.81 min | CC12CCC3C4=C(CCC3C1CCC2O)C(=O)C(=O)C=C4 (stereo not given)
9.26 min | COc1cc2c(cc1O)C1CCC3(C)C(O)CCC3C1CC2 (stereo not given)
8.15 min | CC12CCC(O)CC1=CCC1C2C(O)CC2(C)C1CCC2(O)C(=O)CO (stereo not given)
7.76 min | CC12CCC(O)CC1CCC1C2C(O)CC2(C=O)C(C(=O)CO)CCC12 (stereo not given)
7.73 min | CC12CCC3c4ccc(OS(=O)(=O)O)c(O)c4CCC3C1CCC2=O (stereo not given)
11.9 min | CC12C=CCC1C1CCC3CC(O)CCC3(C)C1CC2 (stereo not given)
7.33 min | CC12CCC3c4ccc(O)cc4CCC3C1C(O)CC2O (stereo not given)
7.57 min | CC12CCC(O)CC1CCC1C2C(=O)CC2(CO)C(C(=O)CO)CCC12 (stereo not given)
7.39 min | CC12CCC3C(C(O)CC4CC(O)CCC43C)C1CC(O)C2 (stereo not given)
8.06 min | CC12CCC3c4ccc(O)c(O)c4CCC3C1CCC2=O (stereo not given)
7.61 min | CC12CCC(=O)C=C1CCC1C2C(O)CC2(C)C1CCC2(O)C(=O)CO (stereo not given)
6.59 min | CC12CCC3c4ccc(O)cc4C(=O)CC3C1CC(O)C2O (stereo not given)
8.8 min | CC(=O)C1(O)CCC2C3CCC4=CC(=O)CCC4(C)C3C(O)CC21C (stereo not given)
7.01 min | CC12CCC3c4ccc(O)cc4C(O)CC3C1CCC2O (stereo not given)
13 min | CC(=O)C1CCC2C3CC=C4CC(O)CCC4(C)C3CCC12C (stereo not given)
7.97 min | CC12CCC(=O)CC1CCC1C2C(O)CC2(C=O)C(C(=O)CO)CCC12 (stereo not given)
6.76 min | CC12CCC(=O)C=C1CCC1C2C(O)CC2(C=O)C1CCC2(O)C(=O)CO (stereo not given)
8.44 min | CC12CCC(O)CC1=CCC1C2CCC2(C)C1CCC2(O)C(=O)CO (stereo not given)

LC retention time | SMILES
9.06 min | CC12CC(=O)C3C(CCC4CC(O)CCC43C)C1CCC2C(=O)CO (stereo not given)
16.7 min | CC(CCC(=O)O)C1CCC2C3CCC4CCCCC4(C)C3CC(O)C12C (stereo not given)
8.81 min | CC12CCC(=O)C=C1CCC1C2C(O)CC2(C)C(C(=O)CO)CCC12 (stereo not given)
8.89 min | CC12CCC3C(CCC4=CC(=O)CCC43C=O)C1CCC2C(=O)CO (stereo not given)
7.34 min | CC12CCC(=O)C=C1CCC1C2C(O)CC2(CO)C(C(=O)CO)CCC12 (stereo not given)
13.9 min | CC(O)C1CCC2C3CCC4CC(=O)CCC4(C)C3CCC12C (stereo not given)
7.18 min | CC12CCC(O)CC1CCC1C2C2CC3(C(O)O2)C(C(=O)CO)CCC13 (stereo not given)
11.6 min | CC12CCC(=O)CC1CCC1C2CCC2(C)C(C(=O)CO)CCC12 (stereo not given)
8.65 min | CC12CCC3c4ccc(OS(=O)(=O)O)cc4CCC3C1CCC2=O (stereo not given)
10.9 min | CC(=O)C1(O)CCC2C3CCC4=CC(=O)CCC4(C)C3CCC21C (stereo not given)
8.54 min | CC12CC(=O)C3C(CCC4CC(O)CCC43C)C1CCC2C(O)CO (stereo not given)
10.5 min | CC12CCCC1C1CC(O)C3(O)CC(O)CCC3(C)C1CC2 (stereo not given)
11.3 min | COc1cc2c(cc1O)CCC1C2CCC2(C)C(=O)CCC12 (stereo not given)
8.1 min | CC12CCC(=O)C=C1CCC1C2C(O)CC2(C)C(C(=O)C(=O)O)CCC12 (stereo not given)
11.6 min | CC(=O)C1CCC2C3=CC=C4CC(O)CCC4(C)C3CCC12C (stereo not given)
8.07 min | CC12CCC3c4cc(O)c(O)cc4CCC3C1CCC2=O (stereo not given)
7.15 min | CC12CCC3c4ccc(O)cc4CC(O)C3C1CCC2O (stereo not given)
6.52 min | CC12CCC(=O)C=C1CCC1C2C(O)CC2(CO)C1CCC2(O)C(=O)CO (stereo not given)
12.9 min | CC12CCCC1C1CCC3CC(O)CCC3(C)C1CC2 (stereo not given)
